According to US20240384250A1, “FIBROBLAST GROWTH FACTOR 23 MODULATING COMPOUNDS” (THE UAB RESEARCH FOUNDATION, priority 2021, published 2024):
Entries after “also recorded” stand apart in the source; their conditions may differ.

What was measured:
[1] = tested on: intact hearts isolated from adult mice; assay: Isolated heart contractility; design: species or system mouse; conditions: FGF23 9 ng/ml with heparin 0.06 USP/ml
Procedure: Isolated heart contractility was performed as described previously. 14,70,71 Briefly, 2- to 3-month-old male CD-1 mice were anesthetized using 3% isoflurane and hearts were carefully removed and placed into oxygenated Ringer's solution composed of 140 mM NaCl, 2.0 mM KCl, 2.5 mM CaCl2), 1.0 mM MgSO4, 1.5 mM K2HPO4, 10 mM N-2-hydroxyethylpiperazine-N-2-ethanesulfonic acid, and 10 mM glucose (pH 7.4). Atria were then removed, and the intact ventricular muscle was attached to small metallic clips hung vertically from a force transducer (ADInstruments) between bipolar platinum-stimulating electrodes and suspended in 25-ml glass tissue chambers (ADInstruments). Heart muscles were perfused with Ringer's solution continuously bubbled with 100% O2 at room temperature. Hearts were stretched to the length of maximum force development and paced at 1 Hz (5 ms pulse duration, 30-60 V; Grass Instruments SD9 Square Pulse Stimulator). After a stable baseline was obtained, hearts were treated with either vehicle or FGF23 (9 ng/ml) alone or in combination with heparin (0.06 USP/ml) while contractile force output was monitored for 30 minutes. Contractile data were recorded and analyzed with LabChart 8 software (ADInstruments). Waveform changes were analyzed for peak contraction force (in millinewtons) and maximum slope of force development and presented as fold change from baseline values.

FGF23 binding to FGFR3c = molecular target: T1, FGF23 binding to FGFR3c (Homo sapiens, UniProt P22607+Q9GZV9); assay: Plate-based binding, FGF23 coated, then sKL, heparin or PBS, then Fc-FGFR; conditions: with sKL, with heparin 0.4 USP, or alone
T1 construct: Fc-coupled FGFR ectodomains were immobilized on protein A/G beads; purchased R&D Systems 2604FG025/CF or 2629FG025/CF; 766FR050
Procedure: (§1) Proteins were coated on 96-well plates (MaxiSorp; 439454, Thermo Fisher Scientific), and proteins were added to wells in 100 μl of enzyme-linked immunosorbent assay (ELISA) coating buffer (E107, Bethyl Laboratories) with a lid placed overtop and incubated at 4° C. overnight. Plates were washed 5× with 350 μl of assay buffer (50 mM Tris [pH 7.4], 200 mM NaCl, 0.01% Tween 20) on a 50 TS microplate washer (BioTek). Plates were blocked for 1 hour in 200 μl of assay buffer with 0.5% BSA. Plates were washed as before, and proteins were incubated on plates in 100 μl of assay buffer with 0.5% BSA. Proteins or heparin was incubated in orders described in the respective figure legends. Assays using FLAG-tag-based detection were incubated with anti-FLAG coupled to HRP at 1:20,000, and assays using Fc detection were incubated with anti-human Fc coupled to HRP at 1:10,000. Plates were washed as above, and 100 μl of 3,3′,5,5′-tetramethylbenzidine (TMB) substrate (E102, Bethyl Laboratories) was added for 15 to 20 minutes until positive wells developed a dark blue color. Reactions were stopped with ELISA stop solution (E115, Bethyl Laboratories) and analyzed using the Synergy HI plate reader (BioTek) at 450 nm wavelength. […] As a control to remove background absorbance values, wells were coated with an equal amount of BSA to match the amount of protein coated in experimental wells and treated the same as experimental wells. To study the effects of sKL on the binding between paracrine FGFs and FGFRs, plates were run as above except coated with paracrine FGFs. Fc-FGFR1 was preincubated with sKL or vehicle for 60 minutes, and then the combination was added to wells and the assay was run as before.

FGF23 binding to FGFR1c = molecular target: T2, FGF23 binding to FGFR1c (Homo sapiens, UniProt P11362+Q9GZV9); assay: as above; conditions: with sKL, with heparin 0.4 USP, or alone
T2 construct: Fc-coupled FGFR ectodomains were immobilized on protein A/G beads; purchased R&D Systems 2604FG025/CF or 2629FG025/CF; 658FR050
Procedure: as §1

FGF23 binding to FGFR2c = molecular target: T3, FGF23 binding to FGFR2c (Homo sapiens, UniProt P21802); assay: as above; conditions: with sKL, with heparin 0.4 USP, or alone
T3 construct: Fc-coupled FGFR ectodomains were immobilized on protein A/G beads; purchased R&D Systems 2604FG025/CF or 2629FG025/CF; 712FR050
Procedure: as §1

FGF23 binding to FGFR4 = molecular target: T4, FGF23 binding to FGFR4 (Homo sapiens, UniProt P22455+Q9GZV9); assay: as above; conditions: with sKL, with heparin 0.4 USP, or alone
T4 construct: Fc-coupled FGFR ectodomains were immobilized on protein A/G beads; purchased R&D Systems 2604FG025/CF or 2629FG025/CF; 685FR050
Procedure: as §1

male BALB/c mice = assay: Serial FGF23 and heparin injections in mice, echocardiography and heart weight; assay type: in vivo, mouse; conditions: heparin 125 USP/kg and/or FGF23 40 μg/kg
Procedure: FGF23 injections were administered following a similar protocol established previously. 13,72,73 Briefly, 12-week-old male BALB/c mice (The Jackson Laboratory) underwent tail vein injections. The day before the experiment, mice underwent echocardiographic analysis, as described below. Mice were anesthetized in 2.5% isoflurane and placed on a heat pad. Each group consisted of 5 mice, and different groups were injected with isotonic saline, heparin, FGF23, or FGF23 and heparin combined. Per injection, 40 μg/kg of FGF23 and 125, 62.5, or 12.5 USP/kg of heparin dissolved in 200 μl of isotonic saline were used, with 8 hours were used between injections for a total of 5 consecutive days. All injections were performed via the lateral tail vein. On the morning of the sixth day, 16 hours after the final tail vein injection, animals underwent echocardiographic analysis and were killed. Middle sections of hearts were cut along the short axis and stored overnight in 4% phosphate-buffered formaldehyde solution. Sections were sent to IDEXX Laboratories for embedding, hematoxylin and eosin (H&E) staining, and sectioning. Sections for wheat germ agglutinin (WGA) labeling were not stained by IDEXX Laboratories.
Echocardiographic analysis was performed on day 6 of the experiment for FGF23-injected mice by using the Vevo 770 or Vevo 3100 imaging system (FUJIFILM VisualSonics). Animals were anesthetized with 1.5% isoflurane, and normal body temperature was maintained using a rectal probe for temperature monitoring. For analysis, both B- and M-mode images were obtained in the short- and long-axis views. Correct positioning of the transducer was ensured using B-mode imaging in the long-axis view before switching to the short-axis view. Image analysis was performed using Vevo 770 Workstation and Vevo LAB software (FUJIFILM VisualSonics).

T3 sequence (P21802 22-377 limits assumed): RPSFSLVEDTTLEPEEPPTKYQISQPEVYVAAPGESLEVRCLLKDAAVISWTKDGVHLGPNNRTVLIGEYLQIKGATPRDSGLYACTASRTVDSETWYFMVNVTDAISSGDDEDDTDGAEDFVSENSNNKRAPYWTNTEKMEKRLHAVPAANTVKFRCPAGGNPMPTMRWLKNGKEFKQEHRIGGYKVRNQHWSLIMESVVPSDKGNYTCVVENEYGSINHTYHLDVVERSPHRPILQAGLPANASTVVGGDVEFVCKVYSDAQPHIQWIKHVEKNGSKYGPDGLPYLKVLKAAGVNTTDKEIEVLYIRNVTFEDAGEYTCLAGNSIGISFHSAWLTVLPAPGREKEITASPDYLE
T1 sequence (Q9GZV9 25-251): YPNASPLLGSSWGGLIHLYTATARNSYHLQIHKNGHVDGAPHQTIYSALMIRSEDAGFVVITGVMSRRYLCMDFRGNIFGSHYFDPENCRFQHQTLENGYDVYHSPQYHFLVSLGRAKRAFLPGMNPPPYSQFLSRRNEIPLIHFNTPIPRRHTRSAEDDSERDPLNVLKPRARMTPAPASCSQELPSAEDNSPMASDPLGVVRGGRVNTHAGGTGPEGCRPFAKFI
T1 sequence (P22607 23-375 limits assumed): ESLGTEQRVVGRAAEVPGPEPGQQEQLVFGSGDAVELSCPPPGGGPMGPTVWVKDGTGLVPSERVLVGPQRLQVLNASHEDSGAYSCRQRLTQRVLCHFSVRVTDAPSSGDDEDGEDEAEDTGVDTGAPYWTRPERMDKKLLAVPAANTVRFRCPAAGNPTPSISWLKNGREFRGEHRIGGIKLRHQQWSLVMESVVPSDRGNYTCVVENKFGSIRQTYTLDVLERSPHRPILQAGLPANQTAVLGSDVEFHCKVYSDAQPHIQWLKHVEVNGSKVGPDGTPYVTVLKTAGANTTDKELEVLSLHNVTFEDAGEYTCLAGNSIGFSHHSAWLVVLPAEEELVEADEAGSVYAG
T2 sequence (Q9GZV9 25-251): as the sequence (Q9GZV9 25-251) above
T2 sequence (P11362 22-376 limits assumed): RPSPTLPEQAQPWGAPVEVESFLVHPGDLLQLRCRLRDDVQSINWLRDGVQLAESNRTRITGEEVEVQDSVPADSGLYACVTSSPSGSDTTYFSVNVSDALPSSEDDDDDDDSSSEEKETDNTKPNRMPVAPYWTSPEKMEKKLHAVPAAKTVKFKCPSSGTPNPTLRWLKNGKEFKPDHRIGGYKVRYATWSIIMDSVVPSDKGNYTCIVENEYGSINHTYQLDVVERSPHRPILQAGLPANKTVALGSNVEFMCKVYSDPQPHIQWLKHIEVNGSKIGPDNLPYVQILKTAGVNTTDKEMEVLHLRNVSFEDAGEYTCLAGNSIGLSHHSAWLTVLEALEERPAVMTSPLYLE
T4 sequence (Q9GZV9 25-251): as the sequence (Q9GZV9 25-251) above
T4 sequence (P22455 22-369 limits assumed): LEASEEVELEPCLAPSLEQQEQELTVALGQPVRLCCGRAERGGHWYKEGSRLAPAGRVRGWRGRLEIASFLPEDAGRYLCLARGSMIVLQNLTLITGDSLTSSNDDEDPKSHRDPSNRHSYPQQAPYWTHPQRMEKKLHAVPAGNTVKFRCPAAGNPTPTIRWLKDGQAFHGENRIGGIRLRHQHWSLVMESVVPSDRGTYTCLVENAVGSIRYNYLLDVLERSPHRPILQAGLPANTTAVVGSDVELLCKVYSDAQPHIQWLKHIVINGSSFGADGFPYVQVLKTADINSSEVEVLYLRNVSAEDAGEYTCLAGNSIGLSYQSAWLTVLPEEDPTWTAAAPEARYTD

binding of coated FGF23 to Fc-FGFR3c (FGF23 binding to FGFR3c): no measurable binding | binding of coated FGF23 to Fc-FGFR1c (FGF23 binding to FGFR1c): no measurable binding
Substance: heparin [reference compound]
FGF23-increased contraction force in the presence of heparin [1]: further increase; also recorded: further elevated | binding of coated FGF23 to Fc-FGFR2c (FGF23 binding to FGFR2c): to a much lesser extent to FGFR2c; also recorded: weaker binding to FGFR2c | binding of coated FGF23 to Fc-FGFR4 (FGF23 binding to FGFR4): significantly increased; also recorded: the strongest | Endocardial % EF (male BALB/c mice): 56.51 ± 4.08% | Endocardial % FAC (male BALB/c mice): 47.34 ± 2.41% | Endocardial Area; s (male BALB/c mice): 5.47 ± 0.44 mm² | Endocardial major; d (male BALB/c mice): 7.23 ± 0.11 mm | Epicardial Area: s (male BALB/c mice): 18.2 ± 0.63 mm² | Epicardial Area; d (male BALB/c mice): 22.5 ± 0.78 mm² | Heart rate (male BALB/c mice): 448.40 ± 4.52 BPM | LV Mass; d (male BALB/c mice): 111.90 ± 5.23 mg | T; d (male BALB/c mice): 0.88 ± 0.03 mm
